Data: patent US8980932B2, “Cancer targeting using carbonic anhydrase isoform IX inhibitors” (Stichting Maastricht Radiation Oncology “Maastro-Clinic”, priority 2010, dated 2015)
pKi: −log10 of the molar value. Like-named read-outs stand apart in the source and are kept apart here.

Experiments:
hCA IX = hCA IX (Homo sapiens (Human), UniProt Q16790); assay: CA-catalyzed CO2 hydration stopped-flow inhibition assay, hCA IX
Protocol: The uncatalyzed rates were determined in the same manner and subtracted from the total observed rates. Stock solutions of inhibitor (1 mM) were prepared in distilled-deionized water with 10-20% (v/v) DMSO (which is not inhibitory at these concentrations) and dilutions up to 0.1 nM were done thereafter with distilled-deionized water. Inhibitor and enzyme solutions were preincubated together for 15 min at room temperature prior to assay, in order to allow for the formation of CA IX-inhibitor complex. The inhibition constants were obtained by non-linear last-squares methods using PRISM 3 and represent the mean from at least three different determinations.

[1] = tested on: cervical (HeLa) carcinoma cell line; assay: Extracellular acidification (delta pH of medium) in HeLa cells; assay type: cell-based, human
Protocol: (§1) The experiment was set up as previously described (Dubois et al, 2007). A colorectal (HT-29) (FIG. 5a) and a cervical (HeLa) (FIG. 5b) carcinoma cell line were tested in normoxic (ambient oxygen concentration) and hypoxic (0.2% oxygen) conditions. HT-29 cells are known to be constitutive hypoxia inducible CA IX (CA IX expression under normoxia and increased CA IX expression upon hypoxia) expressing cells. Therefore, compounds were added after 1 h of hypoxic exposure (to ensure active CA IX) and incubation was done for another 23 h (total of 24 h hypoxia). HeLa cells are hypoxia inducible (at lower density) CA IX expressing cells. Therefore, HeLa were first incubated for 24 h hypoxia to ensure CA IX expression in the first place (time point assessed in time series experiments). Afterwards, compounds were added and cells were incubated for another 24 h.
(§2) Experiments were performed in triplicate for each condition. The described conditions were done both for HT-29 and HeLa under normoxic and hypoxic conditions.
(§3) Following conditions were assessed: • Blank 1 mM or 0.1 mM (no addition of compound, only DMSO/PBS) • DH307 1 mM or 0.1 mM • DH310 1 mM or 0.1 mM • DH338 1 mM or 0.1 mM • DH348 1 mM or 0.1 mM • S=AEBS (4-(2-aminoethylbenzenesulfonamide); Sigma) 1 mM or 0.1 mM (known to reduce extracellular pH as described by (Svastova et al, 2004))
(§4) Cells were seeded in 6 cm dishes (HT-29: 10e6; HeLa: 4×10^5: to compensate for cell size) in 5 ml of DMEM supplemented with 10% FCS. The day after, medium was replaced by 3.6 ml of freshly prepared DMEM/FCS 10%, from which the pH was measured=pH at incubation), after which dishes were placed in the hypoxic chamber (normoxic dishes remained at ambient air in the incubator: 37° C., 95% humidity, 5% CO2). Compounds were added (1 h for HT-29 or 24 h for HeLa after start hypoxic exposure) to have a final concentration of 1 mM or 0.1 mM, by adding 400 μl to the dishes, starting from a 10 or 1 mM stock (DMSO final concentration 0.1%). Blanc controls received DMSO/PBS without compound. pH of the medium was measured after 24 h (HT-29) or 48 h (HeLa) inside the hypoxic chamber after calibration of the electrode to reduced oxygen concentrations. Delta pH (pH at end hypoxic exposure−pH of replacement medium before incubation) were calculated and shown in the graph of FIGS. 5a and 5b.

[2] = tested on: colorectal (HT-29) carcinoma cell line; assay: Extracellular acidification (delta pH of medium) in HT-29 cells; assay type: cell-based; details: for reduction of extracellular acidification: HT-29, hypoxia (0.2% oxygen)
Protocol: as §1, §2, §3, §4

[3] = read-out: KI hCA IX, stopped-flow CO2 hydration, pH 7.5, 15 min preincubation

| Compound | melting point [°C] | pKi (hCA IX; [3]) | reduction of extracellular acidification ([2]; 1 mM) | other results |
| --- | --- | --- | --- | --- |
| NS(=O)(=O)c1ccc(NC(=O)Cn2ccnc2[N+](=O)[O-])cc1 [Compound 4a, 2-(2-nitro-imidazol-1-yl)-N-(4-sulfamoylphenyl)acetamide] | 163 to 165 | 7.15 |  |  |
| NS(=O)(=O)c1cccc(NC(=O)Cn2ccnc2[N+](=O)[O-])c1 [Compound 4b, 2-(2-nitro-imidazol-1-yl)-N-(3-sulfamoylphenyl)acetamide] | 195 to 197 |  |  |  |
| NS(=O)(=O)c1ccc(CCNC(=O)Cn2ccnc2[N+](=O)[O-])cc1 [Compound 4d, 2-(2-nitro-imidazol-1-yl)-N-[2-(4-sulfamoylphenyl)ethyl]acetamide] | 139 to 141 |  |  | pKi (hCA IX): 8.14 |
| Cc1ncc([N+](=O)[O-])n1CCNC(=S)Nc1ccc(S(N)(=O)=O)cc1 [Compound 6a, N-(4-sulfamoylphenyl)-N-((2-aminoethyl)-2-methyl-5-nitroimidazolyl)thiourea] |  | 8.14 |  |  |
| Cc1ncc([N+](=O)[O-])n1CCNC(=S)NCc1ccc(S(N)(=O)=O)cc1 [Compound 6c, N-(4-sulfamoylbenzyl)-N-((2-aminoethyl)-2-methyl-5-nitroimidazolyl)thiourea] |  | 8.08 |  | reduction of extracellular acidification ([1]; hypoxia (0.2% oxygen), 0.1 mM): strong reduction; reduction of extracellular acidification ([1]; hypoxia (0.2% oxygen), 1 mM): made the medium alkaline |
| Cc1ncc([N+](=O)[O-])n1CCNC(=S)NCCc1ccc(S(N)(=O)=O)cc1 [Compound 6d, N-(4-sulfamoylphenylethyl)-N-((2-aminoethyl)-2-methyl-5-nitroimidazolyl)thiourea] |  | 8.11 |  |  |
| Cc1ncc([N+](=O)[O-])n1CCNS(N)(=O)=O [Compound 7, N-[2-(2-methyl-5-nitro-imidazol-1-yl)ethyl]sulfamide] | 122 |  | best results | reduction of extracellular acidification ([2]; 0.1 mM): additional reduction compared with the other compounds; reduction of extracellular acidification ([1]; hypoxia, concentration not specified): best results |
| NCCc1ccc(S(N)(=O)=O)cc1 [S, 4-(2-aminoethylbenzenesulfonamide), reference compound] |  |  | effectively reduced the extracellular acidification | reduction of extracellular acidification ([2]; 0.1 mM): less; effect on extracellular acidification upon normoxic exposure ([2]; HT-29, normoxia): No effect; reduction of extracellular acidification ([1]; hypoxia (0.2% oxygen), 0.1 mM): less; reduction of extracellular acidification ([1]; hypoxia (0.2% oxygen), 1 mM): effectively reduced the extracellular acidification; effect on extracellular acidification upon normoxic exposure ([1]; normoxia): No effect |
| N-[2-(2-methyl-5-nitro-imidazol-1-yl)ethyl]sulfamate [Compound 9] |  |  | best results |  |
